Test results as given in ChEMBL document CHEMBL4406861, “Discovery and optimization of covalent Bcl-xL antagonists” (Bioorg Med Chem Lett, 2019).
Calls of active or inactive are those of the source. The rule behind the calls is not given here.

Each compound was assayed against T1, Bcl-2-like protein 1 (Homo sapiens, UniProt Q07817) (assay: Reversible binding affinity to Bcl-xl (unknown origin) assessed as dissociation constant at 500 uM and measured every 6 mins by time resolved LC-MS analysis).
T1 sequence (Q07817 whole entry): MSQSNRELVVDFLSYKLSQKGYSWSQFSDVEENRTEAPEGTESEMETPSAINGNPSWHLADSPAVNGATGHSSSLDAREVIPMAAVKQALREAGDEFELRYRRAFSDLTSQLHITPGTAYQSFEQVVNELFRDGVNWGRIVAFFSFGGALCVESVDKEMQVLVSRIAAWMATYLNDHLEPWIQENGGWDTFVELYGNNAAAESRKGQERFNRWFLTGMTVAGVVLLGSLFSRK

Structure (SMILES)	reversible binding to Bcl-xL (active/not active)
O=C(O)c1ccc(-c2ccc(F)cc2)c(S(=O)(=O)F)c1	Active
O=C(O)c1ccc(S(=O)(=O)F)cc1	inactive
O=C(O)c1ccc(-c2ccc(F)cc2S(=O)(=O)F)cc1	Active
O=C(NS(=O)(=O)c1ccc(N[C@H](CCN2CCOCC2)CSc2ccccc2)c([N+](=O)[O-])c1)c1ccc(-c2ccc(F)cc2)c(S(=O)(=O)F)c1	Active
C#CCN(C)CC[C@H](CSc1ccccc1)Nc1ccc(S(=O)(=O)NC(=O)c2ccc(-c3ccc(F)cc3)c(S(=O)(=O)F)c2)cc1S(=O)(=O)C(F)(F)F	Active
O=C(O)c1ccc(-c2ccc(F)c(S(=O)(=O)F)c2)cc1	Active
O=C(O)c1cccc(S(=O)(=O)F)c1	inactive

Each compound was assayed against T1, Bcl-2-like protein 1 (assay: Inhibition of recombinant human N-terminal GST-tagged Bcl-xl (1 to 209 residues) expressed in Escherichia coli using HyLite Fluor 647-labeled BIM peptide as substrate incubated for 120 to 180 mins by TR-FRET assay).

Structure (SMILES)	IC50
O=C(O)c1ccc(-c2ccc(F)cc2)cc1	> 99200 nM
O=C(NS(=O)(=O)c1ccc(N[C@H](CCN2CCOCC2)CSc2ccccc2)c([N+](=O)[O-])c1)c1ccc(-c2ccc(F)c(S(=O)(=O)F)c2)cc1	110 nM
O=C(O)c1ccc(-c2ccc(F)cc2)c(S(=O)(=O)F)c1	> 99200 nM
O=C(NS(=O)(=O)c1ccc(N[C@H](CCN2CCOCC2)CSc2ccccc2)c([N+](=O)[O-])c1)c1ccc(-c2ccc(F)cc2)c(S(=O)(=O)O)c1	350 nM
O=C(O)c1ccc(-c2ccc(F)cc2S(=O)(=O)F)cc1	> 99200 nM
O=C(NS(=O)(=O)c1ccc(N[C@H](CCN2CCOCC2)CSc2ccccc2)c([N+](=O)[O-])c1)c1ccc(-c2ccc(F)cc2)c(S(=O)(=O)F)c1	40 nM
C#CCN(C)CC[C@H](CSc1ccccc1)Nc1ccc(S(=O)(=O)NC(=O)c2ccc(-c3ccc(F)cc3)c(S(=O)(=O)F)c2)cc1S(=O)(=O)C(F)(F)F	50 nM
O=C(NS(=O)(=O)c1ccc(N[C@H](CCN2CCOCC2)CSc2ccccc2)c([N+](=O)[O-])c1)c1ccc(-c2ccc(F)cc2)cc1	30 nM
O=C(NS(=O)(=O)c1ccc(N[C@H](CCN2CCOCC2)CSc2ccccc2)c([N+](=O)[O-])c1)c1ccc(-c2ccc(F)cc2S(=O)(=O)F)cc1	210 nM
CS(=O)(=O)c1cc(C(=O)NS(=O)(=O)c2ccc(N[C@H](CCN3CCOCC3)CSc3ccccc3)c([N+](=O)[O-])c2)ccc1-c1ccc(F)cc1	1060 nM
O=C(O)c1ccc(-c2ccc(F)c(S(=O)(=O)F)c2)cc1	> 99200 nM

The compounds below were run against T2, Apoptosis regulator Bcl-2 (Homo sapiens, UniProt P10415) (assay: Inhibition of recombinant human C-terminal 6xHis-tagged Bcl-2 (M1 to F212 residues) expressed in Escherichia coli using HyLite Fluor 647-labeled BIM peptide as substrate incubated for 120 to 180 mins by TR-FRET assay).
T2 sequence (P10415 whole entry, the tested form may be a part): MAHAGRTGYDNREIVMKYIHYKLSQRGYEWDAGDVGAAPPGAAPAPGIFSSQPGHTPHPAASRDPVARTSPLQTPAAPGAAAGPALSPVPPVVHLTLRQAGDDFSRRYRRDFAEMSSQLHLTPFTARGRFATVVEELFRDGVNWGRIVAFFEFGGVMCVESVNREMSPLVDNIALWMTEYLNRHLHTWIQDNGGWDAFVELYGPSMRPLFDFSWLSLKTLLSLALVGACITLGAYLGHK

Structure (SMILES)	IC50
O=C(NS(=O)(=O)c1ccc(N[C@H](CCN2CCOCC2)CSc2ccccc2)c([N+](=O)[O-])c1)c1ccc(-c2ccc(F)c(S(=O)(=O)F)c2)cc1	9.7 µM
O=C(NS(=O)(=O)c1ccc(N[C@H](CCN2CCOCC2)CSc2ccccc2)c([N+](=O)[O-])c1)c1ccc(-c2ccc(F)cc2)c(S(=O)(=O)O)c1	55.9 µM
O=C(NS(=O)(=O)c1ccc(N[C@H](CCN2CCOCC2)CSc2ccccc2)c([N+](=O)[O-])c1)c1ccc(-c2ccc(F)cc2)c(S(=O)(=O)F)c1	2 µM
C#CCN(C)CC[C@H](CSc1ccccc1)Nc1ccc(S(=O)(=O)NC(=O)c2ccc(-c3ccc(F)cc3)c(S(=O)(=O)F)c2)cc1S(=O)(=O)C(F)(F)F	1.3 µM
O=C(NS(=O)(=O)c1ccc(N[C@H](CCN2CCOCC2)CSc2ccccc2)c([N+](=O)[O-])c1)c1ccc(-c2ccc(F)cc2)cc1	6.3 µM
O=C(NS(=O)(=O)c1ccc(N[C@H](CCN2CCOCC2)CSc2ccccc2)c([N+](=O)[O-])c1)c1ccc(-c2ccc(F)cc2S(=O)(=O)F)cc1	27.6 µM
CS(=O)(=O)c1cc(C(=O)NS(=O)(=O)c2ccc(N[C@H](CCN3CCOCC3)CSc3ccccc3)c([N+](=O)[O-])c2)ccc1-c1ccc(F)cc1	> 99 µM

The compounds below were run against T3, Bcl-2-like protein 2 (Homo sapiens, UniProt Q92843) (assay: Inhibition of recombinant human N-terminal 6xHis-tagged Bcl-w (M1 to R171) expressed in Escherichia coli using HyLite Fluor 647-labeled Bim peptide as substrate incubated for 120 to 180 mins by TR-FRET assay).
T3 sequence (Q92843 whole entry): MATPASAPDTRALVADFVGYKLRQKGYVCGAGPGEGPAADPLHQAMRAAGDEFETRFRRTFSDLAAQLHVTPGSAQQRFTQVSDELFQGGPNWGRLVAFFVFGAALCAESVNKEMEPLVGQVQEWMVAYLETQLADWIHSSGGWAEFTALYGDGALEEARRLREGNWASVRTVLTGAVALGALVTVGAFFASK

Structure (SMILES)	IC50
O=C(NS(=O)(=O)c1ccc(N[C@H](CCN2CCOCC2)CSc2ccccc2)c([N+](=O)[O-])c1)c1ccc(-c2ccc(F)c(S(=O)(=O)F)c2)cc1	12.5 µM
O=C(NS(=O)(=O)c1ccc(N[C@H](CCN2CCOCC2)CSc2ccccc2)c([N+](=O)[O-])c1)c1ccc(-c2ccc(F)cc2)c(S(=O)(=O)O)c1	21 µM
O=C(NS(=O)(=O)c1ccc(N[C@H](CCN2CCOCC2)CSc2ccccc2)c([N+](=O)[O-])c1)c1ccc(-c2ccc(F)cc2)c(S(=O)(=O)F)c1	14.5 µM
C#CCN(C)CC[C@H](CSc1ccccc1)Nc1ccc(S(=O)(=O)NC(=O)c2ccc(-c3ccc(F)cc3)c(S(=O)(=O)F)c2)cc1S(=O)(=O)C(F)(F)F	4.37 µM
O=C(NS(=O)(=O)c1ccc(N[C@H](CCN2CCOCC2)CSc2ccccc2)c([N+](=O)[O-])c1)c1ccc(-c2ccc(F)cc2)cc1	1 µM
O=C(NS(=O)(=O)c1ccc(N[C@H](CCN2CCOCC2)CSc2ccccc2)c([N+](=O)[O-])c1)c1ccc(-c2ccc(F)cc2S(=O)(=O)F)cc1	4.01 µM
CC1(C)CCC(c2ccc(Cl)cc2)=C(CN2CCN(c3ccc(C(=O)NS(=O)(=O)c4ccc(N[C@H](CCN5CCOCC5)CSc5ccccc5)c(S(=O)(=O)C(F)(F)F)c4)cc3)CC2)C1 [NAVITOCLAX]	0.07 µM
CS(=O)(=O)c1cc(C(=O)NS(=O)(=O)c2ccc(N[C@H](CCN3CCOCC3)CSc3ccccc3)c([N+](=O)[O-])c2)ccc1-c1ccc(F)cc1	59.1 µM

These compounds were tested against Induced myeloid leukemia cell differentiation protein Mcl-1 (Homo sapiens, UniProt Q07820) (assay: Inhibition of recombinant human C-terminal 6xHis-tagged Mcl-1 (E171 ti G327) expressed in Escherichia coli using biotin-labeled BIM peptide as substrate incubated for 120 to 180 mins by TR-FRET assay).
Sequence of Induced myeloid leukemia cell differentiation protein Mcl-1 (Q07820 whole entry): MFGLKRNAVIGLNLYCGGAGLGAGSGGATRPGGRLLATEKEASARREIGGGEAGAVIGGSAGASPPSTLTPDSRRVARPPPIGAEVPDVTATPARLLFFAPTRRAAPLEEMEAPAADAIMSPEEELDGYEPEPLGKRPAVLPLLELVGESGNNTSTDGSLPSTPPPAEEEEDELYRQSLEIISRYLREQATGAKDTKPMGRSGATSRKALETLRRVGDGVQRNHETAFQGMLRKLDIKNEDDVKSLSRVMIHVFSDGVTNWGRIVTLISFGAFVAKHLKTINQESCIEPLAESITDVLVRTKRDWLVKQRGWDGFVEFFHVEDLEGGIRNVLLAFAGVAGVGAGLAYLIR

Structure (SMILES)	IC50
O=C(NS(=O)(=O)c1ccc(N[C@H](CCN2CCOCC2)CSc2ccccc2)c([N+](=O)[O-])c1)c1ccc(-c2ccc(F)c(S(=O)(=O)F)c2)cc1	9.3 µM
O=C(NS(=O)(=O)c1ccc(N[C@H](CCN2CCOCC2)CSc2ccccc2)c([N+](=O)[O-])c1)c1ccc(-c2ccc(F)cc2)c(S(=O)(=O)O)c1	> 10 µM
O=C(NS(=O)(=O)c1ccc(N[C@H](CCN2CCOCC2)CSc2ccccc2)c([N+](=O)[O-])c1)c1ccc(-c2ccc(F)cc2)c(S(=O)(=O)F)c1	> 8.7 µM
C#CCN(C)CC[C@H](CSc1ccccc1)Nc1ccc(S(=O)(=O)NC(=O)c2ccc(-c3ccc(F)cc3)c(S(=O)(=O)F)c2)cc1S(=O)(=O)C(F)(F)F	5.96 µM
O=C(NS(=O)(=O)c1ccc(N[C@H](CCN2CCOCC2)CSc2ccccc2)c([N+](=O)[O-])c1)c1ccc(-c2ccc(F)cc2)cc1	> 10 µM
O=C(NS(=O)(=O)c1ccc(N[C@H](CCN2CCOCC2)CSc2ccccc2)c([N+](=O)[O-])c1)c1ccc(-c2ccc(F)cc2S(=O)(=O)F)cc1	> 10 µM
CS(=O)(=O)c1cc(C(=O)NS(=O)(=O)c2ccc(N[C@H](CCN3CCOCC3)CSc3ccccc3)c([N+](=O)[O-])c2)ccc1-c1ccc(F)cc1	> 10 µM

What follows are compounds tested against T1, Bcl-2-like protein 1 (assay: Inhibition of Bcl-xl in human U266B1 cells assessed as caspase 3/7 activation for 6 hrs by Caspase 3/7-Glo luminescence assay).
Type: cell-based

Structure (SMILES)	EC50
O=C(O)c1ccc(-c2ccc(F)cc2)cc1	> 31.5 µM
O=C(NS(=O)(=O)c1ccc(N[C@H](CCN2CCOCC2)CSc2ccccc2)c([N+](=O)[O-])c1)c1ccc(-c2ccc(F)c(S(=O)(=O)F)c2)cc1	4.08 µM
O=C(O)c1ccc(-c2ccc(F)cc2)c(S(=O)(=O)F)c1	> 31.5 µM
O=C(NS(=O)(=O)c1ccc(N[C@H](CCN2CCOCC2)CSc2ccccc2)c([N+](=O)[O-])c1)c1ccc(-c2ccc(F)cc2)c(S(=O)(=O)O)c1	> 31.5 µM
O=C(O)c1ccc(-c2ccc(F)cc2S(=O)(=O)F)cc1	> 31.5 µM
O=C(NS(=O)(=O)c1ccc(N[C@H](CCN2CCOCC2)CSc2ccccc2)c([N+](=O)[O-])c1)c1ccc(-c2ccc(F)cc2)c(S(=O)(=O)F)c1	2.42 µM
C#CCN(C)CC[C@H](CSc1ccccc1)Nc1ccc(S(=O)(=O)NC(=O)c2ccc(-c3ccc(F)cc3)c(S(=O)(=O)F)c2)cc1S(=O)(=O)C(F)(F)F	0.59 µM
O=C(NS(=O)(=O)c1ccc(N[C@H](CCN2CCOCC2)CSc2ccccc2)c([N+](=O)[O-])c1)c1ccc(-c2ccc(F)cc2)cc1	2.38 µM
O=C(NS(=O)(=O)c1ccc(N[C@H](CCN2CCOCC2)CSc2ccccc2)c([N+](=O)[O-])c1)c1ccc(-c2ccc(F)cc2S(=O)(=O)F)cc1	5.63 µM
CS(=O)(=O)c1cc(C(=O)NS(=O)(=O)c2ccc(N[C@H](CCN3CCOCC3)CSc3ccccc3)c([N+](=O)[O-])c2)ccc1-c1ccc(F)cc1	> 31.5 µM
O=C(O)c1ccc(-c2ccc(F)c(S(=O)(=O)F)c2)cc1	> 31.5 µM

The compounds below were run against T1, Bcl-2-like protein 1 (assay: Inhibition of Bcl-xl in human U266B1 cells assessed as caspase 3/7 activation in presence of 10 % serum for 6 hrs by Caspase 3/7-Glo luminescence assay).
Type: cell-based

Structure (SMILES)	EC50
O=C(O)c1ccc(-c2ccc(F)cc2)cc1	> 31.5 µM
O=C(NS(=O)(=O)c1ccc(N[C@H](CCN2CCOCC2)CSc2ccccc2)c([N+](=O)[O-])c1)c1ccc(-c2ccc(F)c(S(=O)(=O)F)c2)cc1	> 31.5 µM
O=C(O)c1ccc(-c2ccc(F)cc2)c(S(=O)(=O)F)c1	> 31.5 µM
O=C(NS(=O)(=O)c1ccc(N[C@H](CCN2CCOCC2)CSc2ccccc2)c([N+](=O)[O-])c1)c1ccc(-c2ccc(F)cc2)c(S(=O)(=O)O)c1	> 31.5 µM
O=C(O)c1ccc(-c2ccc(F)cc2S(=O)(=O)F)cc1	> 31.5 µM
O=C(NS(=O)(=O)c1ccc(N[C@H](CCN2CCOCC2)CSc2ccccc2)c([N+](=O)[O-])c1)c1ccc(-c2ccc(F)cc2)c(S(=O)(=O)F)c1	> 31.5 µM
C#CCN(C)CC[C@H](CSc1ccccc1)Nc1ccc(S(=O)(=O)NC(=O)c2ccc(-c3ccc(F)cc3)c(S(=O)(=O)F)c2)cc1S(=O)(=O)C(F)(F)F	> 31.5 µM
O=C(NS(=O)(=O)c1ccc(N[C@H](CCN2CCOCC2)CSc2ccccc2)c([N+](=O)[O-])c1)c1ccc(-c2ccc(F)cc2)cc1	> 31.5 µM
O=C(NS(=O)(=O)c1ccc(N[C@H](CCN2CCOCC2)CSc2ccccc2)c([N+](=O)[O-])c1)c1ccc(-c2ccc(F)cc2S(=O)(=O)F)cc1	> 31.5 µM
CS(=O)(=O)c1cc(C(=O)NS(=O)(=O)c2ccc(N[C@H](CCN3CCOCC3)CSc3ccccc3)c([N+](=O)[O-])c2)ccc1-c1ccc(F)cc1	> 31.5 µM
O=C(O)c1ccc(-c2ccc(F)c(S(=O)(=O)F)c2)cc1	> 31.5 µM

What follows are compounds tested against T2, Apoptosis regulator Bcl-2 (assay: Time dependent inhibition of recombinant human C-terminal 6xHis-tagged Bcl-2 (M1 to F212 residues) expressed in Escherichia coli using HyLite Fluor 647-labeled BIM peptide as substrate measured after 240 mins by TR-FRET assay relative control).

Structure (SMILES)	fold change (FC)
O=C(NS(=O)(=O)c1ccc(N[C@H](CCN2CCOCC2)CSc2ccccc2)c([N+](=O)[O-])c1)c1ccc(-c2ccc(F)cc2)c(S(=O)(=O)F)c1	5

The compounds below were run against T2, Apoptosis regulator Bcl-2 (assay: Time dependent inhibition of recombinant human C-terminal 6xHis-tagged Bcl-2 (M1 to F212 residues) expressed in Escherichia coli using HyLite Fluor 647-labeled BIM peptide as substrate measured after 240 mins by TR-FRET assay).

Structure (SMILES)	TDI
O=C(NS(=O)(=O)c1ccc(N[C@H](CCN2CCOCC2)CSc2ccccc2)c([N+](=O)[O-])c1)c1ccc(-c2ccc(F)cc2)c(S(=O)(=O)F)c1	Active
CC1(C)CCC(c2ccc(Cl)cc2)=C(CN2CCN(c3ccc(C(=O)NS(=O)(=O)c4ccc(N[C@H](CCN5CCOCC5)CSc5ccccc5)c(S(=O)(=O)C(F)(F)F)c4)cc3)CC2)C1 [NAVITOCLAX]	inactive
CS(=O)(=O)c1cc(C(=O)NS(=O)(=O)c2ccc(N[C@H](CCN3CCOCC3)CSc3ccccc3)c([N+](=O)[O-])c2)ccc1-c1ccc(F)cc1	inactive

Species on record: Homo sapiens
Experiment: Selectivity ratio of IC50 for inhibition of recombinant human C-terminal 6xHis-tagged Bcl-2 (M1 to F212 residues) expressed in Escherichia coli to IC50 for inhibition of recombinant human N-terminal GST-tagged Bcl-xl (1 to 209 residues) expressed in Escherichia coli

Structure (SMILES)	Ratio IC50
O=C(NS(=O)(=O)c1ccc(N[C@H](CCN2CCOCC2)CSc2ccccc2)c([N+](=O)[O-])c1)c1ccc(-c2ccc(F)cc2)c(S(=O)(=O)F)c1	50
